# Data from ChEMBL document CHEMBL1201862, “PubChem BioAssay data set” (2004).
# Activity calls are given as the source filed them.
# Key:
# [1] = NIH-3T3 fibroblast cytotoxicity, dose response, cytotoxicity control, cell-based, fluorescence, Alamar Blue, secondary assay (AID 2327); assay type: functional;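 further: NIH-3T3 mouse fibroblasts cultured with fluconazole at 8 µg/mL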
# [2] = fluconazole-exposed Candida albicans growth modulators – fluorescence, retest, confirmation (AID 2467); assay type: functional, cell-based
# [3] = biological target: Serine/threonine-protein phosphatase (Candida dubliniensis (strain CD36 / CBS 7987 / NCPF 3949 / NRRLY-17841) (Yeast), UniProt B9W6M3); assay: blockers of CaCl2-induced CDRE-lacZ signaling – S. cerevisiae, luminescence, secondary, dose response (AID 2388); assay type: functional, cell-based;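 further: yeast reporter cells carrying a calcineurin-responsive lacZ construct stimulated with calcium chloride; luminescent beta-galactosidase reporter signal in whole cells rather than isolated phosphatase activity; potency for inhibition where a drop in reporter signal means calcineurin blockade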
# Chain of Serine/threonine-protein phosphatase (B9W6M3 whole entry): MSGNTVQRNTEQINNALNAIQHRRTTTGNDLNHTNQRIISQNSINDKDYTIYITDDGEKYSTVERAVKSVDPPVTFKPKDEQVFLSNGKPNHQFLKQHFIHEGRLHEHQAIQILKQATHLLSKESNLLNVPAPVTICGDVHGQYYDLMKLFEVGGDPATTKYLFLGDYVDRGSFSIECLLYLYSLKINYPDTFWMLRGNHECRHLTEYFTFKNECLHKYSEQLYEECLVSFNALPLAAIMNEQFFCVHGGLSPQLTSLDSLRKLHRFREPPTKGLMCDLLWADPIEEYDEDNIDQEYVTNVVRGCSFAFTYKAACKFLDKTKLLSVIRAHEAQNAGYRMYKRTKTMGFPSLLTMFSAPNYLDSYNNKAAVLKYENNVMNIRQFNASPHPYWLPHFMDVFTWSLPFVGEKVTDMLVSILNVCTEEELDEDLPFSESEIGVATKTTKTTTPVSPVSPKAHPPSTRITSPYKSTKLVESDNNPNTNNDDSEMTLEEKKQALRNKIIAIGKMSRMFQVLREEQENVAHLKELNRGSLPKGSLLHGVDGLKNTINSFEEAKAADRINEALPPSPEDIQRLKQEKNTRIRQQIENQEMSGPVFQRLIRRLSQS
# [4] = biological target: ATP-dependent molecular chaperone HSP82 (Candida albicans (strain WO-1) (Yeast), UniProt C4YTQ8); assay: steroid-induced GRE reporter decrease in yeast – S. cerevisiae, luminescence, Hsp90 inhibitor project, dose response (AID 2400); assay type: functional, cell-based;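 further: beta-galactosidase luminescence from glucocorticoid response element reporter as proxy for Hsp90 function; inhibitor potency where signal loss means Hsp90 inhibition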
# Chain of ATP-dependent molecular chaperone HSP82 (C4YTQ8 whole entry): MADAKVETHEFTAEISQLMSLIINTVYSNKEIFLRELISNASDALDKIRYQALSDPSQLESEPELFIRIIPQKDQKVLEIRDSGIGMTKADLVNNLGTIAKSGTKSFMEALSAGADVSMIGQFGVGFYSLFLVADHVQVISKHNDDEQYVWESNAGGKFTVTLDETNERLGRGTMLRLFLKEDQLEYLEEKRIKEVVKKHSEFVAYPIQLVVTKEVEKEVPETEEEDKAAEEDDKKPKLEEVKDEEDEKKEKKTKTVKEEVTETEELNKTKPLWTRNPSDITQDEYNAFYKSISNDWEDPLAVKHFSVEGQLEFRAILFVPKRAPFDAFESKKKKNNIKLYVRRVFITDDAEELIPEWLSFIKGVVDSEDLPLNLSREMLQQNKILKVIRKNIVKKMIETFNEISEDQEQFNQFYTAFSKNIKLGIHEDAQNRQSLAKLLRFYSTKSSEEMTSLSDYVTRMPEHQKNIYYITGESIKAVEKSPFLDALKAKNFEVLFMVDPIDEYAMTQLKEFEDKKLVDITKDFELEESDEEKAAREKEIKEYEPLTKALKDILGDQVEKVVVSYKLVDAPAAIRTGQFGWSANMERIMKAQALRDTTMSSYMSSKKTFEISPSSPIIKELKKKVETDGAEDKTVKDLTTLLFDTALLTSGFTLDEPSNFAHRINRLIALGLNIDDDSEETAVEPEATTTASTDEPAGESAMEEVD
# [5] = system: Escherichia coli; assay: microbe, parasite or virus in culture
# [6] = system: Escherichia coli; assay: microbe, parasite or virus in culture; remark: listed apart in the source
# [7] = system: Streptococcus sp. 'group A'; assay: Streptococcus pyogenes SK(-)GAS viability under kanamycin – luminescence, BacTiterGlo, confirmation, counter-screen for streptokinase expression inhibitor project, dose response (AID 1900); assay type: functional, organism-based
# [8] = system: Streptococcus; assay: GAS UMAA2166 growth inhibition – luminescence, BacTiterGlo, counter-screen for streptokinase expression inhibitor project, dose response (AID 1915); assay type: functional, organism-based;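 further: potency for reduction of bacterial viability or growth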
# [9] = THP-1 cell cytotoxicity, dose response, cytotoxicity control for non-replicating M. tuberculosis project (AID 489025); assay type: functional
# [10] = HepG2 cell cytotoxicity, dose response, cytotoxicity control for non-replicating M. tuberculosis project (AID 489018); assay type: functional; details: Mycobacterium tuberculosis
# [11] = Vero E6 cell cytotoxicity, dose response, cytotoxicity control for non-replicating M. tuberculosis project, secondary assay (AID 492998); assay type: functional, VeroE6; details: Vero C1008
# [12] = biological target: T1, Short transient receptor potential channel 4 (Mus musculus, UniProt Q9QUQ5); assay: calcium entry via TRPC4 opening agents – cell-based, HEK293 TRPC4/mu-opioid, Fluo-4 calcium, dose response (AID 434937); assay type: functional
# T1 sequence (Q9QUQ5 whole entry): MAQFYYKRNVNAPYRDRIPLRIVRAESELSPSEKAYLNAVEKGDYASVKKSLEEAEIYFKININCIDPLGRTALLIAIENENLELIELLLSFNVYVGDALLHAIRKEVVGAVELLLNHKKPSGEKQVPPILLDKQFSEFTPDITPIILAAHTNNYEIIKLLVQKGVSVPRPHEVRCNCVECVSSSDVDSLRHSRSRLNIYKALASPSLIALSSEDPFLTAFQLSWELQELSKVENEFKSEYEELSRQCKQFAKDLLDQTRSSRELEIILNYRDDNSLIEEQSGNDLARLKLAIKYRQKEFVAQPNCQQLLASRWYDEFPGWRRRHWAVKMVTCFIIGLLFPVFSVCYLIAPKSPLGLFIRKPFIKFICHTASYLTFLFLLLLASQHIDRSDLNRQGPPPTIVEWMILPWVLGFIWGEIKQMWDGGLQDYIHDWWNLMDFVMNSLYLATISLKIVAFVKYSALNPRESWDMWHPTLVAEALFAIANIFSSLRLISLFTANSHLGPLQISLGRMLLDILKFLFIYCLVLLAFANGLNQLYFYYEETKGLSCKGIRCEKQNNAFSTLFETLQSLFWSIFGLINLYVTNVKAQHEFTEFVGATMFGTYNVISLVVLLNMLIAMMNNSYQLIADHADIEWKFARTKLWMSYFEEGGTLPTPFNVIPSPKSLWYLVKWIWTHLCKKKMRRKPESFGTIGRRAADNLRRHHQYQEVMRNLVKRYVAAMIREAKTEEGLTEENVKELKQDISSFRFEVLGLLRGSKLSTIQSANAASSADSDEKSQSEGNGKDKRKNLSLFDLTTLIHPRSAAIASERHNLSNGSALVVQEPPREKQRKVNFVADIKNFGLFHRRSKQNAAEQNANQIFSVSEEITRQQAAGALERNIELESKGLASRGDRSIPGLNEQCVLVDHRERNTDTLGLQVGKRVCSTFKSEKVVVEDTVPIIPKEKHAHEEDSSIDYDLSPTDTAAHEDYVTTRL
# [13] = cells; assay type: functional
# [14] = biological target: Heat shock protein HSP 90-alpha (Homo sapiens, UniProt P07900); assay type: functional, organism-based
# [15] = system: Vero; assay: cells; assay type: functional, cell-based; details: Chlorocebus sabaeus
# [16] = system: Vero; assay: cells; assay type: functional; details: Chlorocebus sabaeus
# [17] = HGIII-sPLA2 enzyme inhibition potency – biochemical, QFRET, IC50, dose response (AID 743457);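 further: green fluorescence rise as the enzyme cleaves BODIPY PC-A2 in liposomes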
# [18] = biological target: T2, Bcl-2-related protein A1 (Mus musculus, UniProt Q07440); assay type: functional;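 further: confirmatory dose–response counterscreen on Bfl-1, used to check hits from a UBC13 polyubiquitin inhibitor campaign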
# T2 sequence (Q07440 whole entry): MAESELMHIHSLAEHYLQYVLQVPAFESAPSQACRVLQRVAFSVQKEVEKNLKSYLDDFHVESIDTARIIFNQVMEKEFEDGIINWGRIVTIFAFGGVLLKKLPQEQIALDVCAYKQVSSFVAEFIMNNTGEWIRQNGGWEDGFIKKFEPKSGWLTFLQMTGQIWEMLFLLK
# [19] = biological target: T3, Ubiquitin-conjugating enzyme E2 N (Homo sapiens, UniProt P61088); assay type: functional
# T3 sequence (P61088 whole entry): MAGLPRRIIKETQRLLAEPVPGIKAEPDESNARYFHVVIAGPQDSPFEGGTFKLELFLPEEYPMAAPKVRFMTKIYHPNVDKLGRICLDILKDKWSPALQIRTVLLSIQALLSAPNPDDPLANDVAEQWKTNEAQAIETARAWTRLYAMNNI
# [20] = biological target: T3, Ubiquitin-conjugating enzyme E2 N; assay type: functional; remark: listed apart in the source
# [21] = biological target: T4, Small ubiquitin-related modifier 1 (Homo sapiens, UniProt P63165); assay: SUMO1 protein interaction blockers, potency – biochemical, fluorescence polarization, uHTS hits, dose response (AID 624382); assay type: functional; details: read-out: IC50_Mean
# T4 sequence (P63165 whole entry): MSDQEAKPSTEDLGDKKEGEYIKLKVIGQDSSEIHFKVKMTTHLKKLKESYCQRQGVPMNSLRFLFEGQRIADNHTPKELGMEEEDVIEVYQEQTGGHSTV
# [22] = biological target: T4, Small ubiquitin-related modifier 1; assay: SUMO1 protein-protein binding blockers, potency – biochemical, FRET, dose response (AID 624383); assay type: functional; details: read-out: IC50_Mean
# [23] = biological target: T5, Rac GTPase-activating protein 1 (Homo sapiens, UniProt Q9H0H5); assay: blockers of MgcRacGAP-driven Rac1 GTP hydrolysis – biochemical, ADP Hunter fluorescence, primary and confirmatory, confirmation (AID 624330); assay type: functional
# T5 sequence (Q9H0H5 whole entry): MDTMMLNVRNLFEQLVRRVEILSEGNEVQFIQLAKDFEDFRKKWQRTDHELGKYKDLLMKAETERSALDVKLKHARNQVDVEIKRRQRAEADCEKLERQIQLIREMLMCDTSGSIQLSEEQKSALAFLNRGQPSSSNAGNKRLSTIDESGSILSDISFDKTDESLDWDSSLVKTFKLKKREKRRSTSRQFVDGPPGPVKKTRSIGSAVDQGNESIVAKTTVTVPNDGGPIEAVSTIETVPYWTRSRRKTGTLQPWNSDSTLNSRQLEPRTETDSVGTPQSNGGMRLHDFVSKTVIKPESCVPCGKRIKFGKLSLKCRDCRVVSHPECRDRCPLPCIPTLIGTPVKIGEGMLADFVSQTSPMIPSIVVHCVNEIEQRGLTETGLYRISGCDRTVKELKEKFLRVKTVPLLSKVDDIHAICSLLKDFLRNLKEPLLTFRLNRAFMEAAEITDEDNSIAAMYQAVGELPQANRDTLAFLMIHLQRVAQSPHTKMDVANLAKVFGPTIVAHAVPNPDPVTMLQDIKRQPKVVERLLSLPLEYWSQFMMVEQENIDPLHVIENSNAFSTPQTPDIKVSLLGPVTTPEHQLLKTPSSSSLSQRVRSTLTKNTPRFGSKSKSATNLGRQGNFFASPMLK
# [24] = biological target: T6, Calpain-2 catalytic subunit (Sus scrofa, UniProt P43367); assay: m-calpain protease blockers, concentration series – biochemical, fluorogenic peptide substrate, dose response (AID 1420); assay type: functional
# T6 sequence (P43367 whole entry): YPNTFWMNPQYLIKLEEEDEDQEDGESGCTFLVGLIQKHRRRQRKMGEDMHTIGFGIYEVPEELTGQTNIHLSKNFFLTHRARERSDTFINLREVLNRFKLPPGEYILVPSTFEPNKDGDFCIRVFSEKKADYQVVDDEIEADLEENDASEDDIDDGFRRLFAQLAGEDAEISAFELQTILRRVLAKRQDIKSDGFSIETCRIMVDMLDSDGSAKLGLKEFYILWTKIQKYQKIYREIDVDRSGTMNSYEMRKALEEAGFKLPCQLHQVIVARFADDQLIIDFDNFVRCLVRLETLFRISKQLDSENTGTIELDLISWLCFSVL
# [25] = biological target: Cysteine protease ATG4B (Homo sapiens, UniProt Q9Y4P1); assay type: functional;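 further: Fluorescence-based dose-response confirmation assay measuring inhibition of ATG4B activity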
# Chain of Cysteine protease ATG4B (Q9Y4P1 whole entry): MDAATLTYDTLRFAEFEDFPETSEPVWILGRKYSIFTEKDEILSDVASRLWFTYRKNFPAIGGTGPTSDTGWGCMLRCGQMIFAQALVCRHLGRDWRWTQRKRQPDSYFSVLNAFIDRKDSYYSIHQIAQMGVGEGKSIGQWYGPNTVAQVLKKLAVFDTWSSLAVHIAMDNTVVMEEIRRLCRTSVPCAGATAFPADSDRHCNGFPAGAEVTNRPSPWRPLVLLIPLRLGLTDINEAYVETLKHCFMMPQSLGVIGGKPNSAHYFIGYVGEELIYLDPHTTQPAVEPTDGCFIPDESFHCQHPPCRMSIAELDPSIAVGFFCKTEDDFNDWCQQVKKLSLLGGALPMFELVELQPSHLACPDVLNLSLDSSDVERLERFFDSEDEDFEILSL
# [26] = biological target: Phospholipase A2 (Homo sapiens, UniProt P04054); assay type: functional;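 further: confirmatory dose-response counterscreen on phospholipase A2, testing hits that came from an ultra-high-throughput screen for ATG4B inhibitors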
# Chain of Phospholipase A2 (P04054 whole entry): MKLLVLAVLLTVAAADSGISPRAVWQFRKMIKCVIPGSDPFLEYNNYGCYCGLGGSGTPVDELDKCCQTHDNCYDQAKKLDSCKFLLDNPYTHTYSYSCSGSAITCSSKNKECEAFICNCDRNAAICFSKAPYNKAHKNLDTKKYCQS
# [27] = system: A-375; assay: MITF: Counter assay: A375 proliferation Measured in Cell-Based System Using Plate Reader - 2084-03_Inhibitor_Dose_DryPowder_Activity. [Related pubchem assays (depositor defined):AID488944]; assay type: functional; details: Homo sapiens
# [28] = system: A-375; assay: proliferation inhibition in MITF-low A375 cells – cell-based, cherry-pick samples, set 2, counter-screen for MITF modulator project, dose response (AID 540335); assay type: functional; details: Homo sapiens
# [29] = biological target: T7, Microphthalmia-associated transcription factor (Homo sapiens, UniProt O75030); assay: reducers of TRPM1 reporter luminescence, concentration series – cell-based, SK-MEL-5, cherry-picked, set 3, MITF inhibitor project, dose response (AID 493073); assay type: functional;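 further: SK-MEL-5 melanoma cells with luciferase driven by the MITF target TRPM1 promoter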
# T7 sequence (O75030 whole entry): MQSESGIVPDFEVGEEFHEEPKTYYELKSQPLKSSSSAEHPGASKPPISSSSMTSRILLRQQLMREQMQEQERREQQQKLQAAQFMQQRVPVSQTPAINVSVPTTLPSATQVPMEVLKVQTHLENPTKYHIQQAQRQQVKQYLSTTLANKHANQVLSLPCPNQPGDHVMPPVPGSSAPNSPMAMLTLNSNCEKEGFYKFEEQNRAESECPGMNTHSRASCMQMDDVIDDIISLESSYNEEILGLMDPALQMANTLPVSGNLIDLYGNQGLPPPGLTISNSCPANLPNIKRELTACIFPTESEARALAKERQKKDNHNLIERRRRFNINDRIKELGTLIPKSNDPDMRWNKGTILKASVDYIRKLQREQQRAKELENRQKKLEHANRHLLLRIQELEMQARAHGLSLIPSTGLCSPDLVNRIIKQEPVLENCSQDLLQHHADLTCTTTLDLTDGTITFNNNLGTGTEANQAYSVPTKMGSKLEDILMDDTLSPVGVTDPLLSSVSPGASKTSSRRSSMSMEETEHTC
# [30] = system: P388/ADR; assay: cells; assay type: functional; details: Mus musculus
# [31] = system: SN12K1; assay: cells; assay type: functional; details: Homo sapiens
# [32] = system: P388; assay: cells; assay type: functional; details: Mus musculus
smiles,measurement,setting,value
COc1ccc(C(=O)NNC(=S)NC(=O)c2ccc(Cl)cc2)cc1,EC50,[1],> 160 µM (inactive)
same,EC50,[2],275 nM (active)
same,EC50,[3],> 180 µM (inactive)
same,EC50,[4],13.9 µM (active)
COc1cc(-c2noc(-c3ccccc3C(=O)NCc3ccco3)n2)cc(OC)c1OC,AC50,[5],40.5 µM (active)
same,AC50,[6],71.1 µM (active)
CC(Oc1ccc(Cl)cc1)C(=O)NNC(=S)NC(=O)c1ccco1 (stereo unspecified),EC50,[7],571 nM (active)
same,EC50,[8],2.29 µM (active)
same,CC50,[9],13.7 µM (active)
same,CC50,[10],> 20 µM (active)
same,CC50,[11],11.2 µM (active)
same,EC50,[12],5.31 µM (active)
same,IC50,[13],9.22 µM (active)
same,AC50,[14],1.41 µM (active)
same,IC50,[15],> 25 µM (active)
same,CC50,[16],> 25 µM (active)
same,IC50,[17],34.9 µM (inactive)
O=C(Nc1ccc(C2=NCCN2)cc1)c1ccc(C(=O)Nc2ccc(C3=NCCN3)cc2)c([N+](=O)[O-])c1,IC50,[18],4.88 µM (active)
same,IC50,[19],3.11 µM (active)
same,IC50,[20],2.17 µM (active)
same,IC50,[21],> 66.6 µM (inactive)
same,IC50,[22],3.28 µM (active)
same,IC50,[23],33.1 µM (active)
same,AC50,[6],243 µM (active)
COc1cnc(SCc2c(Cl)cccc2Cl)nc1Cl,IC50,[24],< 400 nM (not active)
same,IC50,[25],7.76 µM (active)
same,IC50,[26],7.65 µM (active)
COc1ccc(/C=C/c2cc(C(F)(F)F)on2)cc1,AC50,[27],> 35 µM (active)
same,AC50,[28],> 35 µM (active)
CN(C)CC1CC/C(=C\c2ccc(O)cc2)C1=O (stereo unspecified),AC50,[29],12.9 µM (active)
same,AC50,[14],4.38 µM (active)
same,AC50,[27],> 35 µM (active)
same,AC50,[28],> 35 µM (active)
same,GI50,[30],1.69 µM (inactive)
same,GI50,[31],1.78 µM (inactive)
same,GI50,[32],491 nM (active)
